From article PMC5368959, “Uricosuric targets of tranilast” (Pharmacology Research & Perspectives, 2017)
Where “and” joins values, the source holds several entries; their conditions need not be identical. Equal entries are not always repeated. Where two headings read alike, the source gives them in different places.

Assays:
[1] = biological target: T1, GLUT9a (Homo sapiens, UniProt Q9NRM0); test: [14C]-urate uptake by GLUT9a-expressing Xenopus oocytes; assay type: cell-based; conditions: for IC50: 40 μmol/L urate, NaCl medium, read-out: IC50, GLUT9a-mediated [14C]-urate uptake
T1 sequence (Q9NRM0 1-540): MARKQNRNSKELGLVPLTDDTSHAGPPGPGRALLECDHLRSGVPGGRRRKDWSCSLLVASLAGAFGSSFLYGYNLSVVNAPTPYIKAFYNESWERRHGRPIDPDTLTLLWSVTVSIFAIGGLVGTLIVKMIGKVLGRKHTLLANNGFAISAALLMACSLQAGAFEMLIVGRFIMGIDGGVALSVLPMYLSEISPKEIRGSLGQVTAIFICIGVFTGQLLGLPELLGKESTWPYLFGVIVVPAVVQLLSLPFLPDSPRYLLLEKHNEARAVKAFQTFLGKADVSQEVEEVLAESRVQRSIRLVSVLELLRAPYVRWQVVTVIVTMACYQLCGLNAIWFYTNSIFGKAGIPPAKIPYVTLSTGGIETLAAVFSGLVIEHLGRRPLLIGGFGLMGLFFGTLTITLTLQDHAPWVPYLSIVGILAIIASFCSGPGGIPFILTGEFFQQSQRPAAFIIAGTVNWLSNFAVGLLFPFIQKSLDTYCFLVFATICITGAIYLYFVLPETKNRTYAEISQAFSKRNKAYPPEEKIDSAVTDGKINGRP
Text: (§1) For uptake experiments, oocytes were washed four times with ND96 medium (pH 7.4) without pyruvate and gentamycin.
We sought to investigate the effect of tranilast on GLUT9a‐mediated [^14C]‐urate uptake in Xenopus laevis oocytes.

[2] = biological target: T2, NPT1 (Homo sapiens, UniProt Q14916); test: [14C]-urate uptake by NPT1-expressing Xenopus oocytes; assay type: cell-based
T2 sequence (Q14916 1-467): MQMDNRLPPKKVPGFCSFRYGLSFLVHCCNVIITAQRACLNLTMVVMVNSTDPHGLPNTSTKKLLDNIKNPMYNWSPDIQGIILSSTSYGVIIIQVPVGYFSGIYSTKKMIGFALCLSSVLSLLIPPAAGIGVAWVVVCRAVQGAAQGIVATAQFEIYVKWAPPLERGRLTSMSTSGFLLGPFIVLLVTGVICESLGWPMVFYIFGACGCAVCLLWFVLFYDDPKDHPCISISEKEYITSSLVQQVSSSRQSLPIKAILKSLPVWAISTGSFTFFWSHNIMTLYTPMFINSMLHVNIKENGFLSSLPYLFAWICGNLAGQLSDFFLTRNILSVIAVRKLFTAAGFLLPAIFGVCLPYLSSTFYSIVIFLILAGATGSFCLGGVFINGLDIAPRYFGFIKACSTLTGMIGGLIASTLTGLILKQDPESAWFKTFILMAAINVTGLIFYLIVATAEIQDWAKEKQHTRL
Experimental: as §1
The uptake of [^14C]‐urate by NPT1‐expressing oocytes was performed in ND96 medium (pH 7.4) at ~25°C for 1 h. […] Data are mean ± S.E. with n = 12–15.

[3] = biological target: T3, OAT3 (Mus musculus, UniProt O88909); test: [14C]-urate uptake by OAT3-expressing Xenopus oocytes; assay type: cell-based
T3 sequence (O88909 1-537): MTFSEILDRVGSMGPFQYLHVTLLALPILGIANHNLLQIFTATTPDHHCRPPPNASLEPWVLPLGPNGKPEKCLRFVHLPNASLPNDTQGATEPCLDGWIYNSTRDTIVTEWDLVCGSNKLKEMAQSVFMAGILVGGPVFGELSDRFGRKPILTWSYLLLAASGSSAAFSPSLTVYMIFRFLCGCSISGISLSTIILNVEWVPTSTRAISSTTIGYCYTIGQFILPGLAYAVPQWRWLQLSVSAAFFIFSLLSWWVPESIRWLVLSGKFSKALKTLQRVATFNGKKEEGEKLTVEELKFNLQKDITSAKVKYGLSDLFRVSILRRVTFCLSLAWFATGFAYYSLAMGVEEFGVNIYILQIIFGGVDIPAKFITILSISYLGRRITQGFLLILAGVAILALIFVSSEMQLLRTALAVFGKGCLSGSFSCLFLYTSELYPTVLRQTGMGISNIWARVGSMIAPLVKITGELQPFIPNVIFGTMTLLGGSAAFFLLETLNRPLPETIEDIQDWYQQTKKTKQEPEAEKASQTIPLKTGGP
Experimental: as §1
The uptake of [^14C]‐urate (40 μmol/L) was performed in ND96 medium (pH 7.4) at ~25°C for 1 h.

[4] = biological target: T4, ABCG2 (Homo sapiens, UniProt Q9UNQ0); test: [14C]-urate efflux from ABCG2-expressing Xenopus oocytes
T4 sequence (Q9UNQ0 1-655): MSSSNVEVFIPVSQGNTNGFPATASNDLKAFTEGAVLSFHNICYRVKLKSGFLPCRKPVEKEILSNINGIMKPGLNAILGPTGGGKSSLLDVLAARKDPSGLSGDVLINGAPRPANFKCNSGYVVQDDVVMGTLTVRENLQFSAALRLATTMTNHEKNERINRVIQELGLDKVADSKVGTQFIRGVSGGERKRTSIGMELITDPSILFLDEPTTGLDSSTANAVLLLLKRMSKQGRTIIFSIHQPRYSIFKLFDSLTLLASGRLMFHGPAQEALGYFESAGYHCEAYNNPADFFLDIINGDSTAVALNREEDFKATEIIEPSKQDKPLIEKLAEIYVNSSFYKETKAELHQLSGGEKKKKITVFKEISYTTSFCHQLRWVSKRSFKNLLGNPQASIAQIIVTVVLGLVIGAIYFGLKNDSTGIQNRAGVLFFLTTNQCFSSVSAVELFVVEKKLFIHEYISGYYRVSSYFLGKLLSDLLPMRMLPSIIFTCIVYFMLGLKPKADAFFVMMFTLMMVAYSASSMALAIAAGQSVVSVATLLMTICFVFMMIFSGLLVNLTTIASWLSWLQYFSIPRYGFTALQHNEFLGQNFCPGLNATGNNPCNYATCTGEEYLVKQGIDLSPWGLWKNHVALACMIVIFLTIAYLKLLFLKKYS
Experimental: In brief, a small incision was made in the abdomen and a lobe of ovary was removed. […] Oocytes were then defolliculated by treatment with 3.5 mg/mL collagenase A (Roche, Indianapolis, IN) in Ca^2+‐free ND96 medium for 60–70 min with gentle agitation at room temperature (25°C).
The indicated full‐length cDNAs were subcloned into the pGEMHE oocyte expression plasmid, 3′ of a T7 promoter and flanked by Xenopus laevis‐specific 5′‐ and 3′‐UTRs. Plasmid DNA was linearized at the 3′‐end of cDNAs by Not1, Nhe1, or EcoR1 digestion, and cRNA was in vitro transcribed by using T7 RNA polymerase (mMESSAGE mMACHINE; Ambion, Austin, TX) following the suppliers protocol. Isopropanol‐precipitated, in vitro transcribed capped cRNA was washed with 70% ethanol, dried and then dissolved in sterile nuclease‐free water. The yield and RNA integrity of the capped cRNA samples were assessed by spectroscopy (at 260 nm) and 1% agarose‐formaldehyde gel electrophoresis, respectively. All cRNA samples were stored frozen in aliquots at −80°C until used. About 18 h after isolation, oocytes were injected with 50 nL of sterile water, 50 mmol/L tris pH 7.4, or 50 nL of a cRNA solution in 50 mmol/L tris buffer (pH 7.4) containing 25 ng of the indicated cRNA using fine‐tipped micropipettes by a microinjector (World Precision Instrument Inc. Sarasota, FL).
Preinjected oocytes were then incubated in ND96 medium for 1 h at 16°C for recovery. After incubation, the oocytes were washed in cold ND96 medium four times to remove any external adhering [^14C]‐urate from the oocytes and then subjected to efflux for 1 h at room temperature (~25°C) in ND96 medium (pH 7.4) in the absence or presence of drug.
Radioisotope content of each individual oocyte was measured by scintillation counter after solubilization in 0.3 mL of 10% (v/v) SDS and addition of 2.5 mL of scintillation fluid. […] Statistical analyses including linear regressions were done using SigmaPlot software.
We investigated the effect of tranilast (added in the efflux assay medium) on the [^14C]‐urate efflux activity of ABCG2 expressed in Xenopus laevis oocytes. […]

[5] = biological target: OAT10 (Homo sapiens, UniProt Q9Y226); test: [14C]-urate uptake by OAT10-expressing Xenopus oocytes; assay type: cell-based; conditions: for Inhibition of OAT10-mediated urate uptake: drug 100 μmol/L, PZA-preloaded oocytes
Chain of OAT10 (Q9Y226 whole entry): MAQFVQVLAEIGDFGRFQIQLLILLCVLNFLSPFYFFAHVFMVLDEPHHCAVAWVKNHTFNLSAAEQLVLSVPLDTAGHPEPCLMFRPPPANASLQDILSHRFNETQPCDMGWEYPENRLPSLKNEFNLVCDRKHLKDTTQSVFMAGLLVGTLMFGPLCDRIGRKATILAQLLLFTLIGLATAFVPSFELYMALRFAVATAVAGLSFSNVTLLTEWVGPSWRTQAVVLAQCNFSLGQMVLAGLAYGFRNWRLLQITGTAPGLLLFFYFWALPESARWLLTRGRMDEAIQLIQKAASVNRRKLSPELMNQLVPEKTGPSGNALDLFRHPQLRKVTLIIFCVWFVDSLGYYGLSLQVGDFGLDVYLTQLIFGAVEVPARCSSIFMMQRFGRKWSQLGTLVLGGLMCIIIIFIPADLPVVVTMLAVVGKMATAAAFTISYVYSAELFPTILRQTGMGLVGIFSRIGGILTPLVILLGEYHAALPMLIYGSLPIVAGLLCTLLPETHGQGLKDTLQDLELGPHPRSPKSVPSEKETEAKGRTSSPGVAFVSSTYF
Text: as §1
(A) Time course of [^14C]‐urate uptake by control and […] oocytes. […] Inset, western blot analysis of OAT10 protein expressed in oocytes. […] (C) [^14C]‐urate transport properties of OAT10: voltage sensitivity and Na+‐dependence was examined by replacing extracellular NaCl by KCl or LiCl. Existence of urate/Cl^− exchange mechanism or Cl^− dependence or cis‐inhibitory effects of extracellular Cl^− on was verified by [^14C]‐urate uptake via OAT10 in the absence of extracellular Cl^− ion (0 Cl^−). In 0 Cl^− bath, NaCl was replaced by Na‐gluconate (Na‐Gluc), KCl by K‐gluconate (K‐Gluc), MgCl2 by Mg‐gluconate, and CaCl2 by Ca‐gluconate. […] Data are mean ± S.E. with n = 12–15.

[6] = human, Xenopus laevis oocytes expressing ABCG2, pH 7.4, probe [14C]-urate

With `CCc1oc2ccccc2c1C(=O)c1cc(Br)c(O)c(Br)c1` [benzbromarone] the “GLUT9a urate transport inhibition after washing and removal of inhibitor” value [1] was “substantially inhibited”, the “Inhibition of GLUT9a urate uptake” value [1] was “efficiently inhibited” and the “Reversibility of GLUT9a inhibition” value [1] was “not reversible”. The IC50 [1] was roughly 14.2 µM, the IC50 [2] was roughly 17.1 µM and the “Inhibition of NPT1-mediated urate uptake” value ([2]; drug 100 μmol/L) was “effectively inhibited”. For the same molecule, the “Inhibition of OAT3-mediated urate uptake” value ([3]; drug 100 μmol/L) was “effectively inhibited”, the inhibition at 1 h, 100 μmol/L [4, 6] was roughly 48% and the IC50 [5] was roughly 20 µM. The “Inhibition of OAT10-mediated urate uptake” value [5] was “very efficiently inhibited”.
For `CCCN(CCC)S(=O)(=O)c1ccc(C(=O)O)cc1` [probenecid], the inhibition at 1000 µM ([1]; drug 1.0 mmol/L) was roughly 60%, the “Reversibility of GLUT9a inhibition” value ([1]; washout in oocytes) was “not reversible” and the “Inhibition of NPT1-mediated urate uptake” value ([2]; drug 1.0 mmol/L) was “only partially inhibited”. For the same molecule, the “Inhibition of OAT3-mediated urate uptake” value ([3]; drug 1.0 mmol/L) was “effectively inhibited”, the inhibition at 1 h, 1 mmol/L [4, 6] was roughly 20% and the inhibition at 1000 µM ([5]; read-out: Inhibition of OAT10 urate transport activity) was roughly 65%.
`COc1ccc(C=CC(=O)Nc2ccccc2C(=O)O)cc1OC` [tranilast, N‐(3,4‐dimethoxycinnamoyl) anthranilic acid] was tested, and the “GLUT9a urate transport inhibition after washing and removal of inhibitor” value [1] was “almost no inhibition”, the “Inhibition of GLUT9a urate uptake” value [1] was “efficiently inhibited” and the “Vmax of GLUT9a-mediated urate uptake” value [1] was 108.4 pmoles/oocyte/h and 61 pmoles/oocyte/h. The “mode of inhibition of GLUT9a-mediated urate transport” value [1] was “noncompetitive (mixed) inhibition”, the IC50 [1] was roughly 15.6 µM and the Ki ([1]; Eadie-Hofstee analysis, read-out: inhibition constant (Ki) for GLUT9a-mediated urate uptake) was 17.1 ± 1.3 µM. For the same molecule, the “IC50 for GLUT9a under membrane depolarization” value ([1]; depolarized vs polarized, data not shown) was “remained unchanged”, the IC50 ([2]; data not shown, read-out: IC50, [14C]-urate uptake by NPT1) was roughly 18.9 µM and the “Inhibition of NPT1-mediated urate uptake” value ([2]; drug 100 μmol/L) was “effectively inhibited”. For the same molecule, the IC50 ([3]; data not shown, read-out: IC50, OAT3-mediated urate uptake) was roughly 15 µM, the “Inhibition of OAT3-mediated urate uptake” value ([3]; drug 50 μmol/L) was “effectively inhibited” and the “Effect on ABCG2-mediated urate efflux” value ([4]; drug 100 μmol/L, efflux 1 h) was “remained unaffected”. The IC50 ([5]; data not shown, read-out: IC50, [14C]-urate uptake by OAT10) was roughly 31 µM and the “Inhibition of OAT10-mediated urate uptake” value [5] was “very efficiently inhibited”.
